Reference: US9278994B2, “Short antimicrobial lipopeptides” (Helix BioMedix Inc., priority 2012, dated 2016)
In brackets after ≈: the same amount, converted by molar mass. Where a SMILES comes first, the peptide text is derived from it. [ ]: non-standard residue; d: D form. The star is where a group is joined. Palmitoyl = CCCCCCCCCCCCCCCC(=O)*

What was measured:
[1] = test system: EpiDerm (EPI-200) skin tissue; assay: Skin tissue toxicity, EpiDerm skin model with MTT assay; format: cell-based; conditions: tissue viability (MTT), treated 20 hr
Description: 4. Skin tissue toxicity determination. Skin toxicity and compatibility was determined using EpiDerm (EPI-200) skin tissue and MTT Kit (MTT-100) (MatTek, Ashland, Mass.) according to the manufacture's instruction. 1% Triton X-100 and PBS were used as positive (toxic) and negative (non-toxic) control, respectively.
Potential for dermal irritancy of the lipodipeptides was tested using EpiDerm™ Skin Model (MatTek, Ashland, Mass.) in combination with a modified MTT assay. […] EpiDerm™ consists of organized basal, spinous, granular, and cornified layers analogous to those found in vivo. The tissues were treated with each compound at desired concentration for 20 hr.

[2] = test system: E. coli UB1005
Description: (§1) We conducted the minimal inhibitory concentration (MIC) determination using CLSI (Clinical and Laboratory standard Institute) recommended standard protocol for antimicrobials (Methods for Dilution Antimicrobial Susceptibility Tests for Bacteria That Grow Aerobically; Approved Standard—Ninth Edition).
(§2) 2. Bacterial strains and culture conditions. E. coli UB1005, S. aureus SAP0017 (MRSA) and C. albicans 105 were grown in Mueller Hinton (MH) (Difco, BD Biosciences, MD) agar plates and broth (2 g of beef extract, 17.5 g of acid hydrolysis of casein and 1.5 g of starch per liter) at 37° C. unless otherwise indicated. Bacteria from frozen stock were subcultured onto freshly made MH agar plates prior to susceptibility testing. For P. acnes, the bacterium was grown in BBL™ Brain-Heart infusion (Becton, Dickinson & Company, Sparks Md.) broth or agar plates at 37° C. in anaerobic condition generated using a anaerobic jar and AnaeroGen™ (Oxoid, Basingstoke, Hampshire, England).
(§3) 3. […] The minimal inhibitory concentration (MIC) of each peptide was determined using modified CLSI microtiter broth dilution assay (Methods for Dilution Antimicrobial Susceptibility Tests for Bacteria That Grow Aerobically; Approved Standard—Ninth Edition). An inoculum of 10^5-10^6 colony forming units (CFU)/ml was used or 10^4 CFU/ml for yeast. The MIC value was taken as the lowest peptide concentration at which more than 90% of microbial growth was inhibited after 15 to 20 h of incubation at 37° C. For P. acnes, the incubation was kept under anaerobic condition at 37° C. for 2 weeks before MIC was determined Kill kinetics was performed using a given concentration (about 2-5-fold MIC) of peptide mixed with indicator microorganism. After appropriate dilution the cells were plated on agar plates after defined time intervals and incubated at 37° C. overnight. In the case of P. acnes an extended incubation period was required. The CFU was counted and plotted as survival of bacteria after peptide treatment over time, which indicates the effectiveness of a peptide to kill a microbe.

[3] = test system: S. aureus SAP0017 (MRSA)
Description: as §1, §2, §3

[4] = test system: C. albicans 105
Description: as §1, §2, §3

[5] = test system: P. acnes; format: cell-based, Propionibacterium acnes
Description: as §2, §3

[6] = test system: S. aureus SAP0017 (MRSA); format: cell-based, Staphylococcus aureus; conditions: SAP0017
Description: as §3

[7] = test system: human dermal fibroblasts; assay: Gene profiling (PCR array of extracellular matrix adhesion molecule genes); format: cell-based; conditions: 5 μg/ml, 24 h; up (+) or down (−) regulation
Description: 5. Gene profiling analysis. The 84 genes encoding extracellular matrix adhesion molecules in human dermal fibroblasts were analyzed using PCR arrays conducted by Sunny Biodiscovery, Inc (Santa Paula, Calif.). Human dermal fibroblasts were from Zen-Bio, Research Triangle Park, N.C. (cat. #DF-F, lot #DFMF112410). […] At the end of the incubation cells were observed under the inverted Nikon TS microscope.
At the end of the incubation period cells were preserved in RNAlater solution (Ambion, Austin, Tex.) for 6 h. RNA was extracted and purified with NucleoSpin RNA II kit from Machery-Nagel, Bethleem, Pa.). Purified total RNA was assessed at 230 nm, 260 nm and 280 nm with Agilent HP-8452A diode array spectrophotometer. The concentration of RNA was equalized across the samples and the expression of genes of interest was measured by real-time quantitative PCR with BioRad iCycler iQ Detection System using PCR arrays PAHS-013A (www.sabiosciences.com/rt_pcr_product/HTML/PAHS-013A.html), with 1st strand synthesis kit, SYBR Green master mix and PCR running conditions from Qiagen (formerly SA Biosciences). Efficiency ΔΔCt method was used for quantification of results, after the normalization of gene expression to 5 housekeeping genes carried with the RT2 Profiler PCR Array Data Analysis version 3.5 software.

[8] = test system: P. acnes, S. aureus, E. coli and C. albicans; assay: MIC / antimicrobial activity; format: cell-based; conditions: summary of MIC results of Table 1
Description: as §2, §3

SMILES	Toxicity EpiDerm [1] [µg/mL]	MIC E. coli [2] [µg/mL]	MIC S. aureus [3] [µg/mL]	MIC C. albicans [4] [µg/mL]	MIC P. acnes [5] [µg/mL]	further results
C[C@@H](O)[C@H](NC(=O)[C@H]1CCCN1C(=O)[C@@H](N)CCCCN)C(=O)O [HB2090, K-dPT-OH, reference compound] (H-Lys-[dP]-Thr-OH)	>2000	>2000	>2000	>2000	>2000	–
CC(C)[C@H](NC(=O)[C@@H]1CCCN1C(=O)[C@@H](N)CCCCN)C(N)=O [HB2068, KPV-NH2, reference compound] (H-Lys-Pro-Val-NH2)	>2000	>2000	>2000	>2000	>2000	–
CCCCCCCCCCCCCCCC(=O)N[C@@H](CCCCN)C(=O)N1CCC[C@H]1C(=O)N[C@@H](C)C(N)=O [HB2208, Pal-KPA-NH2] (Palmitoyl-Lys-Pro-Ala-NH2)	>2000	128 (≈ 232 µM)	16 (≈ 29 µM)	16 (≈ 29 µM)	1 (≈ 1.81 µM)	logs of S. aureus eradicated in a kill assay [6]: 5-6 logs
CCCCCCCCCCCCCCCC(=O)N[C@@H](CCCCN)C(=O)N[C@@H](Cc1c[nH]cn1)C(N)=O [HB2242, Pal-KH-NH2]	–	16 (≈ 30.7 µM)	4 (≈ 7.68 µM)	16 (≈ 30.7 µM)	1 to 2	Fold change (peptide vs. PBS control) ADAMTS [7]: 4.7899 Fold change; Fold change (peptide vs. PBS control) CDH1 [7]: 1.9725 Fold change; Fold change (peptide vs. PBS control) COL1A1 [7]: 1.1975 Fold change; Fold change (peptide vs. PBS control) COL8A1 [7]: −1.4044 Fold change; Fold change (peptide vs. PBS control) HAS1 [7]: −2.3295 Fold change; Fold change (peptide vs. PBS control) ITGA6 [7]: −1.014 Fold change; Fold change (peptide vs. PBS control) ITGA7 [7]: −2.0279 Fold change; Fold change (peptide vs. PBS control) ITGB2 [7]: 1.3947 Fold change; Fold change (peptide vs. PBS control) KAL1 [7]: 1.8404 Fold change; Fold change (peptide vs. PBS control) MMP1 [7]: 1.7171 Fold change; Fold change (peptide vs. PBS control) MMP8 [7]: −1.6472 Fold change; Fold change (peptide vs. PBS control) MMP9 [7]: −1.6472 Fold change; Fold change (peptide vs. PBS control) MMP10 [7]: 1.2142 Fold change; Fold change (peptide vs. PBS control) MMP13 [7]: −2.4967 Fold change; Fold change (peptide vs. PBS control) MMP14 [7]: 1.2142 Fold change; Fold change (peptide vs. PBS control) SELE [7]: 1.3947 Fold change; Fold change (peptide vs. PBS control) THBS3 [7]: −3.0738 Fold change; antimicrobial activity (in words) [8]: broad spectrum antimicrobial activity
CCCCCCCCCCCCCCCC(=O)N[C@@H](CCCCN)C(=O)N1CCC[C@H]1C(=O)N[C@H](C(N)=O)C(C)C [HB2180, Pal-KPV-NH2] (Palmitoyl-Lys-Pro-Val-NH2)	>2000	128 (≈ 221 µM)	8 (≈ 13.8 µM)	16 (≈ 27.6 µM)	1 to 2	logs of S. aureus eradicated in a kill assay [6]: 5-6 logs
CCCCCCCCCCCCCCCC(=O)N[C@@H](CCCCN)C(=O)N1CCC[C@H]1C(N)=O [HB2202, Pal-KP-NH2] (Palmitoyl-Lys-Pro-NH2)	>2000	64 (≈ 133 µM)	16 (≈ 33.3 µM)	16 (≈ 33.3 µM)	1 (≈ 2.08 µM)	–
CCCCCCCCCCCCCCCC(=O)N[C@@H](CCCCN)C(=O)N[C@@H](CCCNC(=N)N)C(N)=O [HB2259, Pal-KR-NH2] (Palmitoyl-Lys-Arg-NH2)	–	8 (≈ 14.8 µM)	2 (≈ 3.71 µM)	16 (≈ 29.6 µM)	<1	Fold change (peptide vs. PBS control) ADAMTS [7]: 2.4284 Fold change; Fold change (peptide vs. PBS control) CDH1 [7]: 1.0718 Fold change; Fold change (peptide vs. PBS control) COL1A1 [7]: −1.8661 Fold change; Fold change (peptide vs. PBS control) COL8A1 [7]: −2.5847 Fold change; Fold change (peptide vs. PBS control) HAS1 [7]: −3.0314 Fold change; Fold change (peptide vs. PBS control) ITGA2 [7]: 1.3195 Fold change; Fold change (peptide vs. PBS control) ITGA7 [7]: −1.8661 Fold change; Fold change (peptide vs. PBS control) ITGB2 [7]: 2.1435 Fold change; Fold change (peptide vs. PBS control) KAL1 [7]: 1.2311 Fold change; Fold change (peptide vs. PBS control) MMP1 [7]: 1.1487 Fold change; Fold change (peptide vs. PBS control) MMP8 [7]: 2.1435 Fold change; Fold change (peptide vs. PBS control) MMP9 [7]: −2.1435 Fold change; Fold change (peptide vs. PBS control) MMP10 [7]: 1.6245 Fold change; Fold change (peptide vs. PBS control) MMP13 [7]: −3.249 Fold change; Fold change (peptide vs. PBS control) MMP14 [7]: −2.4623 Fold change; Fold change (peptide vs. PBS control) SELE [7]: 1.0718 Fold change; Fold change (peptide vs. PBS control) THBS3 [7]: −1.6245 Fold change; antimicrobial activity (in words) [8]: broad spectrum antimicrobial activity
CCCCCCCCCCCCCCCC(=O)N[C@@H](CCCCN)C(=O)N1CCC[C@@H]1C(N)=O [HB2203, Pal-K-dP-NH2] (Palmitoyl-Lys-[dP]-NH2)	>2000	128 (≈ 266 µM)	8 (≈ 16.6 µM)	16 (≈ 33.3 µM)	1 to 2	–
CC(C)[C@H](NC(=O)[C@@H]1CCCN1C(=O)[C@@H](N)CCCCN)C(=O)O [HB2067, KPV-OH, reference compound] (H-Lys-Pro-Val-OH)	>2000	>2000	>2000	>2000	>2000	–
C[C@@H](O)[C@H](NC(=O)[C@H]1CCCN1C(=O)[C@@H](N)CCCCN)C(N)=O [HB2089, K-dPT-NH2, reference compound] (H-Lys-[dP]-Thr-NH2)	>2000	>2000	>2000	>2000	>2000	–
